Values of other authors as cited in EP0501250A1, “Fucose-marked batracylin derivatives” (BAYER AG, priority 1991, dated 1992).

Assays:
Colon-38-Modell = Colon-38-Modell an der Maus
[1] = prior-art statement

For `Nc1ccc2c(c1)CN1C(=O)c3ccccc3C1=N2` [Batracylin], the Antitumorwirkung (Colon-38-Modell) is listed as “ausgezeichnete Antitumorwirkung” and the “Löslichkeit in wasserhaltigen Lösungsmitteln” value [1] is listed as “geringe Löslichkeit”.
